Results: US20150269307A1, “TARGET INHIBITION MAP SYSTEM FOR COMBINATION THERAPY DESIGN AND METHODS OF USING SAME” (Texas Tech University System, priority 2014, published 2015)

Key:
DIPG neurospheres [1] = assay: Cellular viability assay (CellTiter-Glo Luminescent Cell Viability Assay); type: cell-based, mouse; conditions: 48 hours
Protocol: (§1) A bromodeoxyuridine (BrdU) based cell proliferation ELISA assay kit (Roche) was used for proliferation and processed according to the manufacturer's protocol. […] Viability was measured with CellTiter-Glo Luminescent Cell Viability Assay (# G7572, Promega) per manufacturer's protocol, luminescence values were obtained using Turner Biosystems Modulus Microplate luminometer (model 9300-062). All values are given as mean+/−SD of at least 3 independent experiments.

DIPG neurospheres [2] = assay: BrdU based cell proliferation ELISA assay; design: species or system mouse
Protocol: as §1

IGF-1R = molecular target: T1, IGF-1R (Mus musculus, UniProt Q60751); assay: Western blot analysis of phospho-IGF-1R after IGF-1 stimulation; type: cell-based; conditions: 4 hours of drug exposure at 1 μM and higher
T1 construct: endogenous in cells; host or cells: murine DIPG neurospheres (Ntv-a p53 deficient, PDGF-B driven)
T1 sequence (Q60751 31-1373): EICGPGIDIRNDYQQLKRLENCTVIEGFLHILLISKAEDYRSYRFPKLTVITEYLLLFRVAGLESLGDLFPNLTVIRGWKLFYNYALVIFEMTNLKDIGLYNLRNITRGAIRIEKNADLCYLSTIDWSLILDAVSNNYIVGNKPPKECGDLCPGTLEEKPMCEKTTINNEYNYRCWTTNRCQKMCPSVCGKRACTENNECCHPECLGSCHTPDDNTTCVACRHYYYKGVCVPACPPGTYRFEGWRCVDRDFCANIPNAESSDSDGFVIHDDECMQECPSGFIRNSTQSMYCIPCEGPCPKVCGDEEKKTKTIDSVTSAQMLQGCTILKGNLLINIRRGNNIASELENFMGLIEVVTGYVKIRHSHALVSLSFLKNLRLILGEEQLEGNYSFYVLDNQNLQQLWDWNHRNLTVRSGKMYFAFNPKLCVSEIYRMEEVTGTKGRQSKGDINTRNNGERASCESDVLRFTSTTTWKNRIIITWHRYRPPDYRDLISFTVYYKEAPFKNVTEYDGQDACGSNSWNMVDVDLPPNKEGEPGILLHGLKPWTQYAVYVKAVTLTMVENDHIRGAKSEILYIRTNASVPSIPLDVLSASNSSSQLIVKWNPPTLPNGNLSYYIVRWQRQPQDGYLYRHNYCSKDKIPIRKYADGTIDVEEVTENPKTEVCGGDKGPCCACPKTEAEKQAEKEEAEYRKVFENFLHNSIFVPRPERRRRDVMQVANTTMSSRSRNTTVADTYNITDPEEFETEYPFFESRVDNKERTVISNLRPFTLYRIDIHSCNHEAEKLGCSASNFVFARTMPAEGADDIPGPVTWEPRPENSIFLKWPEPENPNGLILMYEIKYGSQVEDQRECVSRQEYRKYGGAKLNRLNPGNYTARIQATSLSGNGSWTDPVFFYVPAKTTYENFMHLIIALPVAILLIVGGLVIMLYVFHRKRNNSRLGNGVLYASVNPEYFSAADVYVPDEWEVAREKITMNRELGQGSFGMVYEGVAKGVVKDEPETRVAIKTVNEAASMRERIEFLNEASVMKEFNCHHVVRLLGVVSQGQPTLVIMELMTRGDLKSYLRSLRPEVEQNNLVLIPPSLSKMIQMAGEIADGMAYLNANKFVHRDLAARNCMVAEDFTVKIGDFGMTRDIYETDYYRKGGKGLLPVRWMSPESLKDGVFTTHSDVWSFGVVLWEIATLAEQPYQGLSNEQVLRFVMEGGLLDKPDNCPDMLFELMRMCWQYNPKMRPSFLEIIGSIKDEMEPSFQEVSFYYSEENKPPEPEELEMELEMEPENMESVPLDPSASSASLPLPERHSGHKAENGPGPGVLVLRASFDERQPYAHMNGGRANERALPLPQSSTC
Protocol: (§2) IGF-1R ligand was added at 10 nmol/L concentration for 15 minutes prior to cell collection. […] Protein concentrations of total cell lysates or total tissue lysates were determined using BCA assay kit (Pierce). Lysates were resolved by SDS-PAGE (Invitrogen) and transferred to nitrocellulose membranes (Bio-Rad Laboratories). […] All antibodies were purchased from Cell Signaling except Actin, which was purchased from Santa Cruz Biotech. Membranes were incubated with the appropriate labeled secondary antibodies, and protein was visualized and quantified using Li-Cor Biosciences Odyssey Infrared Imaging system (Li-Cor Biosciences). Inhibition was calculated by comparing the ratio of phosphorylation signals in untreated versus treated samples after normalization to actin. All values are given as mean+/−SD of at least 3 independent experiments.

AKT = assay: Western blot analysis of phospho-Akt after IGF-1 stimulation; type: cell-based, mouse; conditions: 4 hours of drug exposure at 1 μM and higher
Protocol: as §2

U23674 cells = assay: Four-arm orthotropic allograft study, survival; type: in vivo, mouse; conditions: 50 mg/kg OSI-906, 150 mg/kg GDC-0941, oral gavage; compared to vehicle and other arms
Protocol: This engraftment was performed after damaging the right leg via cardiotoxin as previously described. Treatment commenced two days after engraftment. Dosing schedule was once daily by oral gavage up to day 5, at which time dosing was performed every other day. The endpoint for the study and survival analysis was tumor volume=1.4 cc.

[3] = system: human patient-derived xenografts; assay: Xenograft-derived chemical screen (Supplemental Table 3); type: cell-based
Protocol: Three chemical screens were applied to the U23674 primary tumor cell culture. […] The target inhibition profile is a quantified description of the inhibitory properties of the compound on the numerous protein targets preset on the PPTI screen.
To screen the chemical agents, cell cultures were plated in 384 well plates at a seeding density of 2000 cells per well over graded concentrations of the numerous compounds. The chemical concentrations were between 10 nM and […] depending on the activity range of the compounds. The cells were incubated in DMEM supplemented with 1% penicillin streptomycin, and 10% fetal bovine serum for 72 hours. Chemical sensitivity was determined by an MTS cell viability assay after the 72 hour incubation period. The sensitivity responses at the different concentrations were used to determine the chemical IC50 using a hill curve fitting algorithm with variable hill slope coefficients.

DIPG neurospheres [4] = assay: cells; conditions: for viability at 10 µM: read-out: cell viability (cytocidal)
Protocol: Primary cultures of DIPG neurospheres were added to 384 well plates pre-plated with 60 known drugs in an increasing gradient of concentrations. […] To complete this drug screen, primary cultures of nestin […] 53 deficient DIPG neurospheres were added to plates with 60 known drug samples in an increasing gradient of concentrations.

DIPG-bearing mice = type: in vivo
Protocol: All experiments were performed under the Institutional Animal Care and Use Committee and Institutional Review Board of Duke University approved protocol (A239-10-9 and A214-13-8). Mice were maintained under barrier conditions. Nestin tv-a (Ntv-a) p53^fl/fl mice were injected with DF1 cells expressing RCAS-PDGF-B+RCAS-Cre as described above. Three weeks post injection; […]. Mice were treated with 25 mg/kg BID for 6 doses. Loss of 25% of body weight, lethargy, head tilt, or seizure development was used as euthanasia criteria during the treatment window. Four hours after completion of the 6th dose, treated animals were euthanized and tumor tissue was extracted as described above.
Tumor samples embedded in paraffin were then sectioned on a Leica RM2235 microtome at […] thickness. Immunohistochemistry was performed using Discovery XT (Ventana Medical Systems). Sections were immunostained for cleaved caspase 3 (Asp175) (Cell Signaling #9661) and anti-phospho-histone H3 (Ser10) (Millipore 06-570) to allow for evaluation of apoptosis and proliferation, respectively.
Image analysis was completed using MetaMorph 6.1 software (Universal Imaging Corp.; Downingtown, Pa.) to quantify immunostaining on previously imaged sections for each injected animal. These images were thresholded using the HSI color representation method in the Set Color Threshold window. This method has previously been validated by Maximova et. al.. This is a multidimensional evaluation of the hue, saturation, and intensity of each individual pixel making up an image with a range from 0-255. Once color thresholds had been established that were able to define all nucleated cells and only positively labeled cells, each of the ten images per injected animal were quantified for (per 40× high powered field): total nucleated cell area, total nucleated cell count, total positive cell area, total positive cell count. […] The averages for each animal of each of these parameters were then transferred to GraphPad Prism 5 software (GraphPad Software, San Diego, Calif.) where a Mann-Whitney-U t-test was performed on each analyzed parameter to determine statistical significance.

[5] = 48 h, read-out: In Vitro Absolute IC50

| Structure (SMILES) | concentration giving significant reduction of viability (DIPG neurospheres [1]) | IC50 (DIPG neurospheres [1]; Mus musculus, CellTiter-Glo, read-out: IC50, viability / cytotoxic effects) | concentration giving significant inhibition of proliferation (DIPG neurospheres [2]) | IC50 (DIPG neurospheres [2]; Mus musculus, 48 hours, BrdU assay) | reduction in pIGF-1R (IGF-1R) | reduction in pAKT expression (AKT) | survival of mice (endpoint tumor volume 1.4 cc) (U23674 cells) | IC50 Value ([3]; 60 agent PPTI screen) | IC50 (DIPG neurospheres [4]; [5]) | viability at 10 µM (DIPG neurospheres [4]) | apoptosis, cleaved caspase 3 positive cells (DIPG-bearing mice; 25 mg/kg BID for 6 doses, intraperitoneal, mean, p=0.0435 vs vehicle) | DIPG proliferation, phosphorylated histone-3 (serine 10) positive cells (DIPG-bearing mice; 25 mg/kg BID for 6 doses, intraperitoneal, mean, p=0.8421 vs vehicle) | blood brain barrier crossing (DIPG-bearing mice; mouse, in vivo) | tolerability in mice undergoing treatment (DIPG-bearing mice; mouse, in vivo) | IC50 ([3]; Homo sapiens, read-out: IC50 Value) | IC50 (DIPG neurospheres [4]; Mus musculus, read-out: in vitro IC50 in the high throughput drug screen) |
| --- | --- | --- | --- | --- | --- | --- | --- | --- | --- | --- | --- | --- | --- | --- | --- | --- |
| C[C@]1(O)C[C@@H](c2nc(-c3ccc4ccc(-c5ccccc5)nc4c3)c3c(N)nccn32)C1 [OSI-906] | ≥ 1 µM | 2400 nM | ≥ 1 µM | 2500 nM | 73% | 69% | no better than survival of mice only treated with vehicle | >conc tested | 1740 nM | < 15% |  |  |  |  |  |  |
| C[C@@]1(C(=O)Nc2ccc(F)nc2)CCCN1c1nc(Nc2cc(C3CC3)n[nH]2)c2cccn2n1 [BMS-754807] | ≥ 0.1 µM |  |  |  |  |  |  |  | 97.4 nM | < 15% | 1.063+/−0.1925 percentage of cell per high powered filed | 9.632+/−2.827 percentage of cell per high powered filed | able to cross the blood brain barrier | well tolerated | 1730 nM | 90 nM |
| CS(=O)(=O)N1CCN(Cc2cc3nc(-c4cccc5[nH]ncc45)nc(N4CCOCC4)c3s2)CC1 [GDC-0941] |  |  |  |  |  |  | no better than survival of mice only treated with vehicle |  |  |  |  |  |  |  |  |  |
